Target: T1, KRAS G12C (GMPPNP-loaded, Cys-light, amino acids 1-169) and cRAF Ras-binding domain interaction (Homo sapiens, UniProt P01116, C118S/C51S/C80L/G12C)
T1 construct: truncated version comprising amino acids 1-169
Assay: Inhibition of KRAS G12C and cRAF binding (AlphaScreen)
Settings: KRAS G12C preloaded with GMPPNP, 2 hours compound incubation, room temperature
Experimental: The AlphaScreen technology was used to determine IC50s for compound inhibition of KRAS G12C (present as the Cys-light (C51S, C80L and C118S), truncated version comprising amino acids 1-169) and cRAF interaction. Compounds were diluted in 100% DMSO and each compound concentration was spotted at 200 nl/well onto low volume, white 384 well plates. The KRAS G12C contained a biotin-AviTag and the cRaf, as Ras-binding domain (amino acids 50-131, RBD), was GST-tagged. KRAS G12C was preloaded with the GTP analogue Guanosine 5′-[…] (GMPPNP). The KRAS G12C was diluted in 25 mM Hepes, pH 7.4, 150 mM NaCl, 5 mM MgCl2, 0.01% TritonX-100 and 10 μM GMPPNP and added at 10 ul/well to compound-spotted plates resulting in a DMSO concentration of 2%. Plates were incubated for 2 hours. A mixture of RBD and the AlphaScreen streptavidin donor and glutathione acceptor beads diluted in 25 mM Hepes, pH 7.4, 150 mM NaCl, 5 mM MgCl2, 0.01% TritonX-100 and 2% DMSO was then added at 10 ul/well and incubated for 60-90 minutes before the samples were read for emission at 570 nm after excitation of the donor beads at 680 nm. All incubations were performed at room temperature. The final top compound concentration was 50 μM with 1:3 titrations for 10-point dose response curves. Final assay conditions were 0.5 nM KRAS G12C, 0.75 nM RBD and 5 μg/ml each of AlphaScreen donor and acceptor beads. IC50s were determined using nonlinear regression fit of [inhibitor] vs. response (4 parameters).
A counter assay was also set up to rule out inhibitors of the AlphaScreen technology itself. Compound plates were incubated for 2 hours as above with buffer only. The AlphaScreen beads were added as above except biotin-AviTag-GST was substituted for the RBD. Samples were read and analyzed as above.

T1 sequence (P01116 1-169 isoform P01116-2 G12C/C51S/C80L/C118S): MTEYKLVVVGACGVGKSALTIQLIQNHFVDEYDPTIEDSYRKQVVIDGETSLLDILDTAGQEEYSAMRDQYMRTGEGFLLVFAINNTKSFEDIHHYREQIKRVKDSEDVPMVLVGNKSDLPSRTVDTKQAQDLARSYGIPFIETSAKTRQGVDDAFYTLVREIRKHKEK

| Compound | IC50 |
| --- | --- |
| COC(=O)/C=C(\F)C(=O)N1CCC(N(C)c2nc(OCC34CCCN3CCC4)nc3c2CCN(c2cccc4cccc(Cl)c24)C3)C1 (stereo not drawn) [Compound 1] | 10 to 100 nM |
| Cc1nccc(/C=C(\F)C(=O)N2CCN(c3nc(OCC45CCCN4CCC5)nc4c(F)c(-c5cccc6cccc(Cl)c56)ncc34)C[C@@H]2CC#N)n1 [Compound 2] | < 10 nM |
| Cc1nsc(/C=C(\F)C(=O)N2CCN(c3nc(OCC45CCCN4CCC5)nc4c3CCN(c3cccc5ccc(F)c(Cl)c35)C4)C[C@@H]2CC#N)n1 [Compound 3] | < 10 nM |
| CC(C)c1noc(/C=C(\F)C(=O)N2CCN(c3nc(OCC45CCCN4CCC5)nc4c(F)c(-c5cccc6cccc(Cl)c56)ncc34)C[C@@H]2CC#N)n1 [Compound 4] | < 10 nM |
| Cc1nccc(/C=C(\F)C(=O)N2CCN(c3nc(OC[C@@]45CCCN4C[C@H](F)C5)nc4c(F)c(-c5cccc6ccc(F)c(Cl)c56)ncc34)C[C@@H]2CC#N)n1 [Compound 5, 2-((S)-4-(7-(8-chloro-7-fluoronaphthalen-1-yl)-8-fluoro-2-(((2R,7aS)-2-fluorotetrahydro-1H-pyrrolizin-7a(5H)-yl)methoxy)pyrido[4,3-d]pyrimidin-4-yl)-1-((Z)-2-fluoro-3-(2-methylpyrimidin-4-yl)acryloyl)piperazin-2-yl)acetonitrile] | < 10 nM |
| N#CC[C@H]1CN(c2nc(OC[C@@]34CCCN3C[C@H](F)C4)nc3c(F)c(-c4cccc5cccc(Cl)c45)ncc23)CCN1C(=O)/C(F)=C/c1ccnc(C2CC2)n1 [Compound 6] | < 10 nM |
| N#CC[C@H]1CN(c2nc(OC[C@@]34CCCN3C[C@H](F)C4)nc3c(F)c(-c4cccc5ccc(F)c(Cl)c45)ncc23)CCN1C(=O)/C(F)=C\c1ccnc(C2CC2)n1 [Compound 7] | 10 to 100 nM |
| N#CC[C@H]1CN(c2nc(OC[C@@]34CCCN3C[C@H](F)C4)nc3c(F)c(-c4cccc5ccc(F)c(F)c45)ncc23)CCN1C(=O)/C(F)=C\c1ccnc(C2CC2)n1 [Compound 8] | 10 to 100 nM |
| CCc1c(F)ccc2cccc(-c3ncc4c(N5CCN(C(=O)/C(F)=C/c6ccnc(C)n6)[C@@H](CC#N)C5)nc(OC[C@@]56CCCN5C[C@H](F)C6)nc4c3F)c12 [Compound 9, 2-((S)-4-(7-(8-ethyl-7-fluoronaphthalen-1-yl)-8-fluoro-2-(((2R,7aS)-2-fluorotetrahydro-1H-pyrrolizin-7a(5H)-yl)methoxy)pyrido[4,3-d]pyrimidin-4-yl)-1-((Z)-2-fluoro-3-(2-methylpyrimidin-4-yl)acryloyl)piperazin-2-yl)acetonitrile] | < 10 nM |
| CCc1c(F)ccc2cccc(-c3ncc4c(N5CCN(C(=O)/C(F)=C\c6ccnc(C7CC7)n6)[C@@H](CC#N)C5)nc(OC[C@@]56CCCN5C[C@H](F)C6)nc4c3F)c12 [Compound 10] | 100 to 500 nM |
| Cc1nccc(/C=C(\F)C(=O)N2CCN(c3nc(OC[C@@]45CCCN4C[C@H](F)C5)nc4c(F)c(-c5cccc6ccc(F)c(F)c56)ncc34)C[C@@H]2CC#N)n1 [Compound 11, 2-((S)-4-(7-(7,8-difluoronaphthalen-1-yl)-8-fluoro-2-(((2R,7aS)-2-fluorotetrahydro-1H-pyrrolizin-7a(5H)-yl)methoxy)pyrido[4,3-d]pyrimidin-4-yl)-1-((Z)-2-fluoro-3-(2-methylpyrimidin-4-yl)acryloyl)piperazin-2-yl)acetonitrile] | < 10 nM |
| CN1CCC1/C=C(/F)C(=O)N1CCN(c2nc(OC[C@@]34CCCN3C[C@H](F)C4)nc3c(F)c(-c4cccc5ccc(F)c(F)c45)ncc23)C[C@@H]1CC#N (stereo partly drawn) [Compound 12] | ≥ 500 nM |
| CN1CC[C@@H]1/C=C(\F)C(=O)N1CC[C@@H](N(C)c2nc(OC[C@@]34CCCN3C[C@H](F)C4)nc3c(F)c(-c4cccc5ccc(F)c(F)c45)ncc23)C1 [Compound 13] | 100 to 500 nM |
| CN1CC[C@@H]1/C=C(/F)C(=O)N1CC[C@@H](N(C)c2nc(OC[C@@]34CCCN3C[C@H](F)C4)nc3c(F)c(-c4cccc5ccc(F)c(F)c45)ncc23)C1 [Compound 14] | 10 to 100 nM |
| CCc1c(F)ccc2cccc(-c3ncc4c(N5CCN(C(=O)/C(F)=C/c6cc(C)nc(C)n6)[C@@H](CC#N)C5)nc(OC[C@@]56CCCN5C[C@H](F)C6)nc4c3F)c12 [Compound 15] | < 10 nM |
| CN1CCC1/C=C(\F)C(=O)N1CCN(c2nc(OC[C@@]34CCCN3C[C@H](F)C4)nc3c(F)c(-c4cccc5ccc(F)c(Cl)c45)ncc23)C[C@@H]1CC#N (stereo partly drawn) [Compound 16, 2-((2S)-4-(7-(8-chloro-7-fluoronaphthalen-1-yl)-8-fluoro-2-(((2R,7aS)-2-fluorotetrahydro-1H-pyrrolizin-7a(5H)-yl)methoxy)pyrido[4,3-d]pyrimidin-4-yl)-1-((Z)-2-fluoro-3-(1-methylazetidin-2-yl)acryloyl)piperazin-2-yl)acetonitrile] | 100 to 500 nM |
| CN1CCC1/C=C(/F)C(=O)N1CCN(c2nc(OC[C@@]34CCCN3C[C@H](F)C4)nc3c(F)c(-c4cccc5ccc(F)c(Cl)c45)ncc23)C[C@@H]1CC#N (stereo partly drawn) [Compound 17] | ≥ 500 nM |
| Cc1nccc(/C=C(\F)C(=O)N2CCN(c3nc(OC[C@@]45CCCN4C[C@H](F)C5)nc4c(F)c(-c5cccc6cccc(Cl)c56)ncc34)C[C@@H]2CC#N)n1 [Compound 18] | < 10 nM |
| Cc1cc(/C=C(\F)C(=O)N2CCN(c3nc(OC[C@@]45CCCN4C[C@H](F)C5)nc4c(F)c(-c5cccc6cccc(F)c56)ncc34)C[C@@H]2CC#N)nc(C)n1 [Compound 19] | < 10 nM |
| Cc1nccc(/C=C(\F)C(=O)N2CCN(c3nc(OC[C@@]45CCCN4C[C@H](F)C5)nc4c(F)c(-c5cccc(Cl)c5C5CC5)ncc34)C[C@@H]2CC#N)n1 [Compound 20] | < 10 nM |
| N#CC[C@H]1CN(c2nc(OC[C@@]34CCCN3C[C@H](F)C4)nc3c(F)c(-c4cccc5cccc(Cl)c45)ncc23)CCN1C(=O)/C(F)=C/CN1[C@@H]2CC[C@H]1COC2 [Compound 21] | ≥ 500 nM |
| Cc1nccc(/C=C(\F)C(=O)N2CCN(c3nc(OC[C@@]45CCCN4C[C@H](F)C5)nc4c(F)c(-c5cccc6ccc(F)c(C)c56)ncc34)C[C@@H]2CC#N)n1 [Compound 22] | < 10 nM |
| Cc1nccc(/C=C(\F)C(=O)N2CCN(c3nc(OC[C@@]45CCCN4C[C@H](F)C5)nc4c(F)c(-c5cccc6c(C)c(F)ccc56)ncc34)C[C@@H]2CC#N)n1 [Compound 23] | 10 to 100 nM |
| N#CC[C@H]1CN(c2nc(OC[C@@]34CCCN3C[C@H](F)C4)nc3c(F)c(-c4cccc5ccc(F)c(F)c45)ncc23)CCN1C(=O)/C(F)=C/CN1CCOCC1 [Compound 24] | 100 to 500 nM |
| Cc1cc(/C=C(\F)C(=O)N2CCN(c3nc(OC[C@@]45CCCN4C[C@H](F)C5)nc4c(F)c(-c5cccc6cccc(Cl)c56)ncc34)C[C@@H]2CC#N)nc(C)n1 [Compound 26] | < 10 nM |
| Cc1cc(/C=C(\F)C(=O)N2CCN(c3nc(OC[C@@]45CCCN4C[C@H](F)C5)nc4c(F)c(-c5cccc6ccc(F)c(F)c56)ncc34)C[C@@H]2CC#N)nc(C)n1 [Compound 27] | < 10 nM |
| N#CC[C@H]1CN(c2nc(OC[C@@]34CCCN3C[C@H](F)C4)nc3c(F)c(-c4cccc5cccc(F)c45)ncc23)CCN1C(=O)/C(F)=C/CN1[C@@H]2CC[C@H]1COC2 [Compound 28] | ≥ 500 nM |
